Where a name gives a salt, the structure may show the parent alone.
Each molecule was assayed against T1, hNav1.7 and the β1 subunit (Homo sapiens, UniProt Q15858) (assay: Tritiated compound competitive binding to membranes from cells heterologously expressing hNav1.7 and the β1 subunit (LBA)). Conditions: competition with 100 pM [3H]compound, 18 h, room temperature; IC50 by 4 parameter logistic model.
T1 construct: expressed in transfected cells
Protocol: Example 235 Tritiated Compound Binding to Membranes Isolated from Cells that Heterologously Express hNav1.7 and the β1 Subunit
Preparation of membranes containing recombinantly expressed sodium channels: Frozen recombinant cell pellets were thawed on ice and diluted to 4 times the cell pellet weight with ice cold 50 mM Tris HCl, pH 7.4 buffer. The cell suspensions were homogenized on ice using a motorized glass dounce homogeniser. Homogenates were further diluted 8.4 times with ice cold 50 mM Tris HCl, pH 7.4 buffer and then centrifuged at 200×g at 4° C. for 15 min. The supernatants were collected and centrifuged at 10000×g at 4° C. for 50 min. The pellets were then re-suspended in 100 mM NaCl, 20 mM Tris HCl, pH 7.4 buffer containing 1% v/v protease inhibitors (Calbiochem) and re-homogenized on ice. The homogenized membranes were then processed through a syringe equipped with a 26 gauge needle. Protein concentrations were determined by Bradford Assay and the membranes were stored at −80° C.
Radioligand Binding Studies:
Saturation experiments. A competitive NaV1.7 inhibitor having a methyl group was tritiated. Three tritiums were incorporated in place of methyl hydrogens to generate [^3H]compound. Binding of this radioligand was performed in 5 mL borosilicate glass test tubes at room temperature. Binding was initiated by adding membranes to increasing concentrations of [^3H]compound in 100 mM NaCl, 20 mM Tris HCl, pH 7.4 buffer containing 0.01% w/v bovine serum albumin (BSA) for 18 h. […] After 18 h, the reactants were filtered through GF/C glass fiber filters presoaked in 0.5% w/v polyethylene imine. […] [^3H]compound bound to filters was quantified by liquid scintillation counting.
Competitive Binding Experiments:
Binding reactions were performed in 96-well polypropylene plates at room temperature for 18 h. In 360 μL, membranes were incubated with 100 pM [^3H]compound and increasing concentrations of Test Compound. […] Reactions were transferred and filtered through 96-well glass fiber/C filter plates presoaked with 0.5% polyethylene imine. The filtered reactions were washed 5 times with 200 μL ice cold buffer containing 0.25% BSA. Bound radioactivity was determined by liquid scintillation counting.
Data Analysis: For saturation experiments, non-specific binding was subtracted from total binding to provide specific binding and these values were recalculated in terms of pmol ligand bound per mg protein. Saturation curves were constructed and dissociation constants were calculated using the single site ligand binding model: Beq=(Bmax*X)/(X+Kd), where Beq is the amount of ligand bound at equilibrium, Bmax is the maximum receptor density, Kd is the dissociation constant for the ligand, and X is the free ligand concentration. For competition studies percent inhibition was determined and IC50 values were calculated using a 4 parameter logistic model (% inhibition=(A+((B−A)/(1+((x/C)^D)))) using XLfit, where A and B are the maximal and minimum inhibition respectively, C is the IC50 concentration and D is the (Hill) slope.

T1 sequence (Q15858 whole entry): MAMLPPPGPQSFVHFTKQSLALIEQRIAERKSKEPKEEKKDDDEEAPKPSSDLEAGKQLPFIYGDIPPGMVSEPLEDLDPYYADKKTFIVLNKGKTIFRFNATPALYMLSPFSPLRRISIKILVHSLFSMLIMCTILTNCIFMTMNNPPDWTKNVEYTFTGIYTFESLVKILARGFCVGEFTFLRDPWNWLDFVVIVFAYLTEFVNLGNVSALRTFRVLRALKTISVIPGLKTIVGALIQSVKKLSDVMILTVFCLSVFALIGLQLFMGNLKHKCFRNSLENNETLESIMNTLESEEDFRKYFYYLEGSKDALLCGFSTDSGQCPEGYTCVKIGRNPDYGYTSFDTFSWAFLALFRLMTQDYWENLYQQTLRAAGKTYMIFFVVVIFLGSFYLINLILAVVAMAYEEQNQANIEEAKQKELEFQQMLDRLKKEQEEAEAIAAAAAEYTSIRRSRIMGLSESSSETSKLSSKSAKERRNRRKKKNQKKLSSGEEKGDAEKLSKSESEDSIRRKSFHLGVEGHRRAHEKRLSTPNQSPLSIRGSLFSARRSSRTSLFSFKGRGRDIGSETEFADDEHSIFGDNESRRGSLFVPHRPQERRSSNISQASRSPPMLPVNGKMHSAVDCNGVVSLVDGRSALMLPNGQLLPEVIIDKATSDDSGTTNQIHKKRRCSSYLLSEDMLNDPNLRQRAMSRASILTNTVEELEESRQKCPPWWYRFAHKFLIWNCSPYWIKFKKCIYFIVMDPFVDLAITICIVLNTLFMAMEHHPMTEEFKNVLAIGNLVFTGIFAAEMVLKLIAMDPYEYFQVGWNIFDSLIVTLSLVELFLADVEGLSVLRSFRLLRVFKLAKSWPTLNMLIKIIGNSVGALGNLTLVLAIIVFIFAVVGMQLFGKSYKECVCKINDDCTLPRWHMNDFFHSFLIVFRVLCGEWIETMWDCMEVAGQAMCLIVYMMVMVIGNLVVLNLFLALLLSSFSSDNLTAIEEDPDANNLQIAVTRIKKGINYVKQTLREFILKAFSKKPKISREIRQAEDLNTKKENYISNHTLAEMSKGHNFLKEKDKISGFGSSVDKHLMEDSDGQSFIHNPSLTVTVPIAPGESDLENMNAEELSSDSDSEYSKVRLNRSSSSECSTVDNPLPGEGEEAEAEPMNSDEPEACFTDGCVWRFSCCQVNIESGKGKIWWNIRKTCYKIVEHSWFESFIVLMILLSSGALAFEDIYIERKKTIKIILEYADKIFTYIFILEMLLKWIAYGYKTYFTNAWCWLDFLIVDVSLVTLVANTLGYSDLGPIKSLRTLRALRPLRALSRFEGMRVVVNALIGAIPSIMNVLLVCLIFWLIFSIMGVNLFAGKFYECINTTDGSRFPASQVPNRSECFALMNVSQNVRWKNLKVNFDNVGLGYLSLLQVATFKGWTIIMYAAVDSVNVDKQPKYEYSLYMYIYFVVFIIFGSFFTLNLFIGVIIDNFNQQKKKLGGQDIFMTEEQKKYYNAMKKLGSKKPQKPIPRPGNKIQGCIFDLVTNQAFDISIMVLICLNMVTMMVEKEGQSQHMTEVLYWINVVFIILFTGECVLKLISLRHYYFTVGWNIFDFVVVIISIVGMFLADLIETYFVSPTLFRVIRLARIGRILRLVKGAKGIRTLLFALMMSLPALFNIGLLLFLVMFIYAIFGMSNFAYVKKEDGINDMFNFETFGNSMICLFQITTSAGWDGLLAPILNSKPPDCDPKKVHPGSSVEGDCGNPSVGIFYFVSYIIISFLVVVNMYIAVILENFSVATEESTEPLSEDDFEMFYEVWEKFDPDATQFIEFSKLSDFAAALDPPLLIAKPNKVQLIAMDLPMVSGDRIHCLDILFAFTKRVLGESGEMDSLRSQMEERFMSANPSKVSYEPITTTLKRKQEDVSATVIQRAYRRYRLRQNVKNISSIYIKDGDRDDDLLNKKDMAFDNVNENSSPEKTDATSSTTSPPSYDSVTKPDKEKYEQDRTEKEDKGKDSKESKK
T1 sequence (Q07699 19-218 partner): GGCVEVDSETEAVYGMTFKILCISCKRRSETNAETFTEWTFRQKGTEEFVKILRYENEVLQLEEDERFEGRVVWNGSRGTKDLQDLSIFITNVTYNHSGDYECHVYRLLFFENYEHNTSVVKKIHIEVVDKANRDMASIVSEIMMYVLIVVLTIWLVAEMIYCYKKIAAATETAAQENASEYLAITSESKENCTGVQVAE

Going from `O=S(=O)(Nc1ncns1)c1ccc2c(c1)CCC[C@H]2N1CCCC[C@H]1c1ccccc1` (single isomer, unassigned) [Example 53, trifluoroacetic acid salt] to `O=S(=O)(Nc1ncns1)c1ccc2c(c1)CCC[C@@H]2N1CCCC[C@H]1c1ccccc1` (single isomer, unassigned) [Example 54], the “Nav1.7 (LBA)” value rises from 0.271 µM to 0.411 µM (1.5-fold).

Compared with `O=S(=O)(Nc1ncns1)c1ccc2c(c1)CCC[C@H]2N1CCCC[C@@H]1c1ccccc1` (single isomer, unassigned) [Example 55], `O=S(=O)(Nc1ncns1)c1ccc2c(c1)CCC[C@@H]2N1CCCC[C@@H]1c1ccccc1` (single isomer, unassigned) [Example 56] is 4.4-fold higher in “Nav1.7 (LBA)” value: 0.286 µM for the first, 1.25 µM for the second.

Compared with `C[C@@H](c1ccc(S(=O)(=O)Nc2ncns2)cc1Cl)N1CCCC[C@@H]1c1ccccc1` (single isomer, unassigned) [Example 59], `C[C@H](c1ccc(S(=O)(=O)Nc2ncns2)cc1Cl)N1CCCC[C@@H]1c1ccccc1` (single isomer, unassigned) [Example 60] is 15-fold lower in “Nav1.7 (LBA)” value: 5.04 µM for the first, 0.33 µM for the second.

Going from `C[C@H](c1ccc(S(=O)(=O)Nc2ncns2)cc1Cl)N1CCCC[C@H]1c1ccccc1` (single isomer, unassigned) [Example 61] to `O=S(=O)(Nc1ncns1)c1ccc2c(c1)CCC2N1CCCCC1c1ccccc1` (single isomer, unassigned) [Example 66, 1-(2-phenylpiperidin-1-yl)-N-(1,2,4-thiadiazol-5-yl)-2,3-dihydro-1H-indene-5-sulfonamide], the “Nav1.7 (LBA)” value falls from 3.98 µM to 0.597 µM (6.7-fold).

Going from `O=S(=O)(Nc1ncns1)c1ccc2c(c1)OCC[C@@H]2N1CCCC[C@H]1c1ccc(F)cc1` (single isomer, unassigned) [Example 76] to `O=S(=O)(Nc1ncns1)c1ccc2c(c1)OCC[C@H]2N1CCCC[C@H]1c1ccc(F)cc1` (single isomer, unassigned) [Example 77], the “Nav1.7 (LBA)” value rises from 0.0179 µM to 0.198 µM (11-fold).

Going from `O=S(=O)(Nc1ncns1)c1ccc2c(c1)OCC[C@@H]2N1CCCC[C@@H]1c1ccc(F)cc1` (single isomer, unassigned) [Example 78] to `O=S(=O)(Nc1ncns1)c1ccc2c(c1)OCC[C@H]2N1CCCC[C@@H]1c1ccc(F)cc1` (single isomer, unassigned) [Example 79], the “Nav1.7 (LBA)” value falls from 0.679 µM to 0.0186 µM (37-fold).

Going from `O=S(=O)(Nc1ncns1)c1ccc2c(c1)OCC[C@@H]2N1CCc2ccccc2[C@H]1c1ccccc1` (single isomer, unassigned) [Example 80] to `O=S(=O)(Nc1ncns1)c1ccc2c(c1)OCC[C@H]2N1CCc2ccccc2[C@H]1c1ccccc1` (single isomer, unassigned) [Example 81], the “Nav1.7 (LBA)” value rises from 0.142 µM to 0.435 µM (3.1-fold).

`O=S(=O)(Nc1ncns1)c1ccc2c(c1)OCC[C@@H]2N1CCN(CC(F)(F)F)C[C@H]1c1ccccc1` (single isomer, unassigned) [Example 82] and `O=S(=O)(Nc1ncns1)c1ccc2c(c1)OCC[C@H]2N1CCN(CC(F)(F)F)C[C@H]1c1ccccc1` (single isomer, unassigned) [Example 83] are within 1.5-fold of each other in “Nav1.7 (LBA)” value: 0.0156 µM for the first, 0.0128 µM for the second.

Compared with `O=S(=O)(Nc1ncns1)c1cc2c(cc1F)[C@@H](N1CCCC[C@H]1c1ccccc1)CCO2` (single isomer, unassigned) [Example 84], `O=S(=O)(Nc1ncns1)c1cc2c(cc1F)[C@H](N1CCCC[C@H]1c1ccccc1)CCO2` (single isomer, unassigned) [Example 85] is 22-fold higher in “Nav1.7 (LBA)” value: 0.00991 µM for the first, 0.218 µM for the second.

Going from `O=S(=O)(Nc1nccs1)c1cc2c(cc1F)[C@@H](N1CCCC[C@H]1c1ccccc1)CCO2` (single isomer, unassigned) [Example 90] to `O=S(=O)(Nc1nccs1)c1cc2c(cc1F)[C@H](N1CCCC[C@H]1c1ccccc1)CCO2` (single isomer, unassigned) [Example 91], the “Nav1.7 (LBA)” value rises from 0.00862 µM to 0.109 µM (13-fold).

Compared with `O=S(=O)(Nc1nccs1)c1cc2c(cc1F)[C@@H](N1CC[C@@H](C(F)(F)F)C[C@H]1c1ccc(F)cc1)CCO2` (single isomer, unassigned) [Example 92], `O=S(=O)(Nc1ncccn1)c1cc2c(cc1F)[C@@H](N1CC[C@@H](C(F)(F)F)C[C@H]1c1ccc(F)cc1)CCO2` (single isomer, unassigned) [Example 97] is 26-fold higher in “Nav1.7 (LBA)” value: 0.000828 µM for the first, 0.0217 µM for the second.

Going from `O=S(=O)(Nc1ncccn1)c1cc2c(cc1F)[C@@H](N1CCCC[C@H]1c1ccccc1)CCO2` (single isomer, unassigned) [Example 94] to `O=S(=O)(Nc1ncccn1)c1cc2c(cc1F)[C@H](N1CCCC[C@H]1c1ccccc1)CCO2` (single isomer, unassigned) [Example 95], the “Nav1.7 (LBA)” value rises from 0.423 µM to 1.54 µM (3.6-fold).

Compared with `O=S(=O)(Nc1cscn1)c1cc2c(cc1F)[C@H](N1CCCC[C@H]1c1ccccc1)CCO2` (single isomer, unassigned) [Example 98], `O=S(=O)(Nc1cscn1)c1cc2c(cc1F)[C@@H](N1CCCC[C@H]1c1ccccc1)CCO2` (single isomer, unassigned) [Example 99] is 20-fold lower in “Nav1.7 (LBA)” value: 1.79 µM for the first, 0.091 µM for the second.

`O=S(=O)(Nc1nccs1)c1ccc2c(c1)OCC[C@@H]2N1CCCC[C@@H]1c1ccc(F)cc1` (single isomer, unassigned) [Example 100] and `O=S(=O)(Nc1nccs1)c1ccc2c(c1)OCC[C@@H]2N1CCCC[C@H]1c1ccc(F)cc1` (single isomer, unassigned) [Example 101] are within 1.5-fold of each other in “Nav1.7 (LBA)” value: 0.0221 µM for the first, 0.022 µM for the second.

Compared with `O=S(=O)(Nc1nccs1)c1ccc2c(c1)OCC[C@@H]2N1CCCC[C@H]1c1ccccc1` (single isomer, unassigned) [Example 102], `O=S(=O)(Nc1nccs1)c1ccc2c(c1)OCC[C@H]2N1CCCC[C@H]1c1ccccc1` (single isomer, unassigned) [Example 103] is 13-fold higher in “Nav1.7 (LBA)” value: 0.072 µM for the first, 0.90 µM for the second.

Going from `O=S(=O)(Nc1ncns1)c1cc(F)c(CN2CCC3(CC3)C[C@@H]2c2ccccc2)cc1F` (single isomer, unassigned) [Example 109] to `O=S(=O)(Nc1ncns1)c1cc(F)c(CN2CC[C@H](O)C[C@@H]2c2ccccc2)cc1F` (single isomer, unassigned) [Example 113], the “Nav1.7 (LBA)” value rises from 1.57 µM to 8.59 µM (5.5-fold).

Going from `O=S(=O)(Nc1ncns1)c1cc(F)c(CN2CC[C@@H](OC(F)(F)F)C[C@H]2c2ccccc2)cc1F` (single isomer, unassigned) [Example 111] to `O=S(=O)(Nc1ncns1)c1ccc2c(c1)OCC[C@@H]2N1CCCC[C@H]1c1cccnc1` (single isomer, unassigned) [Example 121], the “Nav1.7 (LBA)” value falls from 0.0923 µM to 0.0237 µM (3.9-fold).

For `O=S(=O)(Nc1ncns1)c1ccc2c(c1)OCC[C@H]2N1CCCC[C@H]1c1cccnc1` (single isomer, unassigned) [Example 122], the “Nav1.7 (LBA)” value was 0.0125 µM.
